Results on 16 molecules are retold here after patent US20250059205A1, “Heterocyclic Compounds and Methods of Use” (AMGEN INC., priority 2021, published 2025).

Molecules are shown by their SMILES. Some results are limits rather than exact numbers.

As usually defined, the IC50 is the concentration needed to halve the response being measured.

For assay [1], the system named is Phosphorylation of ERK1/2 in AsPC-1 cells. Kind of assay: Phospho-ERK1/2 MSD Assay (AsPC-1 cells). Particulars: Homo sapiens, ASPC1, 2 h, 2 hours treatment, read-out: p-ERK (AsPC-1 cells) IC50. Type of assay: cell-based. Put shortly: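 Read-out: MSD electrochemiluminescent detection of phosphorylated ERK1/2 in whole-cell lysates, fitted to a 4-parameter logistic curve for IC50. Prior to lysis, AsPC-1 cells (25,000 per well) received a 2 h compound dose-response at 37 °C.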

In assay [2] the target is His-tagged KRAS G12D protein (Homo sapiens, UniProt P01116, G12D). Kind of assay: KRAS G12D TR-FRET Assay. The class given is binding.
Assay [3] has as its system Phosphorylation of ERK1/2 in A-427 cells. Description: Phospho-ERK1/2 MSD Assay (A-427 cells). The conditions noted are these: Homo sapiens, A-427, 2 h, 2 h treatment, read-out: p-ERK (A427 cells) IC50. Type of assay: cell-based. Put shortly:
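ERK1/2 phosphorylation measured by Meso Scale whole-cell lysate assay after A-427 cells were exposed to a titration of compound for 2 h at 37 °C.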

The target in assay [4] is GDP-bound KRAS protein (aa 1-169), containing both G12D and C118A amino acid substitutions (Homo sapiens, UniProt P01116, C118A/G12D). Description: KRAS G12D Coupled Nucleotide Exchange Assay. Type of assay: biochemical. Particulars: 2 h compound pre-incubation. The procedure:
Following compound pre-incubation, purified SOS protein (aa 564-1049) and GTP (Roche 10106399001) were added to the assay wells and incubated for an additional 30 min. […] The assay plates were then read on a PerkinElmer EnVision Multilabel Reader, using AlphaScreen® technology, and data were analyzed using a 4-parameter logistic model to calculate IC50 values.

Chain of GDP-bound KRAS protein (aa 1-169), containing both G12D and C118A amino acid substitutions (P01116 1-169 isoform P01116-2 G12D/C118A): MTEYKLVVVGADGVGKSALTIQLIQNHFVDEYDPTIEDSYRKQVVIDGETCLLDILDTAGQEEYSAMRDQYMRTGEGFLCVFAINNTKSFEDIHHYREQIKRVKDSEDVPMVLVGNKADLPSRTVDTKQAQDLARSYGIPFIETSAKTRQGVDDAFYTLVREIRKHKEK
Chain of His-tagged KRAS G12D protein (P01116 1-188 isoform P01116-2 G12D): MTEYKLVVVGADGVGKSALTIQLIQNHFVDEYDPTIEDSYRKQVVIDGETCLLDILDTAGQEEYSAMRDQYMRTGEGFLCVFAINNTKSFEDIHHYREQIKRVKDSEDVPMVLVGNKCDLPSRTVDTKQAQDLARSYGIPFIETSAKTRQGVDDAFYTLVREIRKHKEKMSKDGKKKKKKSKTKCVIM

`Fc1c(-c2cccc3cccc(Cl)c23)ccc2c(N3C[C@H]4CC[C@@H](C3)N4)nc(OC[C@@]34CCCN3C[C@H](F)C4)nc12` [Example 55, 4-((1R,5S)-3,8-diazabicyclo[3.2. 1]octan-3-yl)-7-(8-chloronaphthalen-1-yl)-8-fluoro-2-(((2R,7aS)-2-fluorotetrahydro-1H-pyrrolizin-7a(5H)-yl)methoxy) quinazoline]: the half-maximal inhibitory concentration (IC50) in assay [1] was found to be 1660 nM; in assay [2] it was 8 nM; in assay [3] it was 1150 nM. The “Avg 2 h Coupled Exchange IC50” value in assay [4] is 7 nM.
For `CCc1c(F)ccc2cc(O)cc(-c3ccc4c(N5[C@@H]6CC[C@H]5CNC6)nc(OC[C@@]56CCCN5C[C@H](F)C6)nc4c3F)c12` [Example 146, 4-(4-((1R,5S)-3,8-diazabicyclo[3.2.1]octan-8-yl)-8-fluoro-2-(((2R,7aS)-2-fluorotetrahydro-1H-pyrrolizin-7a(5H)-yl)methoxy)quinazolin-7-yl)-5-ethyl-6-fluoronaphthalen-2-ol] the same measures were 129 nM, 1 nM, 83 nM and 3 nM.
The corresponding values for `CCc1c(F)ccc2cc(O)cc(-c3ccc4c(N5C[C@H]6CC[C@@H](C5)N6)nc(OC[C@@]56CCCN5C[C@H](F)C6)nc4c3F)c12` [Example 87, 4-(4-((1R,5S)-3,8-diazabicyclo[3.2. 1]octan-3-yl)-8-fluoro-2-(((2R,7aS)-2-fluorotetrahydro-1H-pyrrolizin-7a(5H)-yl)methoxy)quinazolin-7-yl)-5-ethyl-6-fluoronaphthalen-2-ol] are 16 nM, 7 nM, 6 nM and 10 nM.
The corresponding values for `CC(C)(O)COc1nc(N2C[C@H]3CC[C@@H](C2)N3)c2cc(F)c(-c3cc(O)cc4ccccc34)c(F)c2n1` [Example 64, 4-(4-((1R,5S)-3,8-diazabicyclo[3.2. 1]octan-3-yl)-6,8-difluoro-2-(2-hydroxy-2-methylpropoxy)quinazolin-7-yl)naphthalen-2-ol] are 7030 nM, 51 nM, 5050 nM and 17 nM.
With `Oc1cc(-c2ccc3c(N4C[C@H]5CC[C@@H](C4)N5)nc(OC[C@@]45CCCN4C[C@H](F)C5)nc3c2F)c2c(F)c(F)ccc2c1` [Example 142, 4-(4-((1R,5S)-3,8-diazabicyclo[3.2.1]octan-3-yl)-8-fluoro-2-(((2R,7aS)-2-fluorotetrahydro-1H-pyrrolizin-7a(5H)-yl)methoxy)quinazolin-7-yl)-5,6-difluoronaphthalen-2-ol], the IC50 in assay [1] worked out at 19 nM; in assay [2] it was 2 nM; in assay [3], 6 nM. The “Avg 2 h Coupled Exchange IC50” value in assay [4] was 2 nM.
In the case of `Fc1c(-c2ccc(Cl)c3ccccc23)c(Cl)cc2c(N3C[C@H]4CC[C@@H](C3)N4)nc(OC[C@@]34CCCN3C[C@H](F)C4)nc12` [Example 79, 4-((1R,5S)-3,8-diazabicyclo[3.2. 1]octan-3-yl)-6-chloro-7-(4-chloronaphthalen-1-yl)-8-fluoro-2-(((2R,7aS)-2-fluorotetrahydro-1H-pyrrolizin-7a(5H)-yl)methoxy) quinazoline], the IC50 in assay [1] was 3430 nM; in assay [2] it was 26 nM; in assay [3] it was more than 10000 nM. Further, in assay [4], the “Avg 2 h Coupled Exchange IC50” value is 26 nM.
As to `CCc1c(F)ccc2cc(O)cc(-c3ccc4c(N5C[C@H]6CC[C@@H](C5)N6)nc(OCC5(O)CCC5)nc4c3F)c12` [Example 135, 4-(4-((1R,5S)-3,8-diazabicyclo[3.2.1]octan-3-yl)-8-fluoro-2-((1-hydroxycyclobutyl)methoxy)quinazolin-7-yl)-5-ethyl-6-fluoronaphthalen-2-ol], the IC50 was 2270 nM in assay [1], 10 nM in assay [2] and 2120 nM in assay [3]. In assay [4], the “Avg 2 h Coupled Exchange IC50” value is 9 nM.
For `Oc1cc(-c2cc3nc(OC[C@@]45CCCN4C[C@H](F)C5)nc(N4[C@@H]5CC[C@H]4CNC5)c3cc2F)c2ccccc2c1` [Example 53, 4-(4-((1R,5S)-3,8-diazabicyclo[3.2. 1]octan-8-yl)-6-fluoro-2-(((2R,7aS)-2-fluorotetrahydro-1H-pyrrolizin-7a(5H)-yl)methoxy)quinazolin-7-yl)naphthalen-2-ol], the IC50 in assay [1] was 919 nM; in assay [2] it was 16 nM; in assay [3], 608 nM. Further, the “Avg 2 h Coupled Exchange IC50” value in assay [4] amounted to 3 nM.
For `CCc1c(F)ccc2cc(O)cc(-c3c(F)cc4c(N5CC6CCC(C5)N6)nc(OCC56CCCN5C[C@H](F)C6)nc4c3F)c12` (atropisomer, axis not shown; (M)) [Example 232, (M)-4-(4-((1R,5S)-3,8-diazabicyclo[3.2.1]octan-3-yl)-6,8-difluoro-2-(((2R,7aS)-2-fluorotetrahydro-1H-pyrrolizin-7a(5H)-yl)methoxy)quinazolin-7-yl)-5-ethyl-6-fluoronaphthalen-2-ol] the same measures were 8 nM, 1 nM, 3 nM and 2 nM.
The corresponding values for `Oc1cc(-c2c(F)cc3c(N4C[C@@H]5CC[C@H]4CN5)nc(OC[C@@]45CCCN4C[C@H](F)C5)nc3c2F)c2c(F)c(F)ccc2c1` [Example 157, 4-(4-((1S,4S)-2,5-diazabicyclo[2.2.2]octan-2-yl)-6,8-difluoro-2-(((2R,7aS)-2-fluorotetrahydro-1H-pyrrolizin-7a(5H)-yl)methoxy)quinazolin-7-yl)-5,6-difluoronaphthalen-2-ol] are 46 nM, 4 nM, 9 nM and 4 nM.
For `Fc1cc2c(N3[C@@H]4CC[C@H]3CNC4)nc(OC[C@@]34CCCN3C[C@H](F)C4)nc2c(F)c1-c1cccc2cccc(Cl)c12` [Example 22, 4-((1R,5S)-3,8-diazabicyclo[3.2. 1]octan-8-yl)-7-(8-chloronaphthalen-1-yl)-6,8-difluoro-2-(((2R,7aS)-2-fluorotetrahydro-1H-pyrrolizin-7a(5H)-yl)methoxy) quinazoline] the same measures were 2350 nM, 17 nM, 2660 nM and 14 nM.
On to `Cc1c(Cl)cc2[nH]ncc2c1-c1c(Cl)cc2c(N3C[C@H]4CC[C@@H](C3)N4)nc(OC[C@@]34CCCN3C[C@H](F)C4)nc2c1F` [Example 73, 4-((1R,5S)-3,8-diazabicyclo[3.2. 1]octan-3-yl)-6-chloro-7-(6-chloro-5-methyl-1H-indazol-4-yl)-8-fluoro-2-(((2R,7aS)-2-fluorotetrahydro-1H-pyrrolizin-7a(5H)-yl)methoxy) quinazoline], for which the IC50 was determined as 715 nM in assay [1], 15 nM in assay [2] and 422 nM in assay [3]. Moreover, in assay [4], the “Avg 2 h Coupled Exchange IC50” value is 17 nM.
The corresponding values for `Cc1ccc2[nH]ncc2c1-c1ccc2c(N3C[C@H]4CC[C@@H](C3)N4)nc(OC[C@@]34CCCN3C[C@H](F)C4)nc2c1F` [Example 195, 4-((1R,5S)-3,8-diazabicyclo[3.2.1]octan-3-yl)-8-fluoro-2-(((2R,7aS)-2-fluorotetrahydro-1H-pyrrolizin-7a(5H)-yl)methoxy)-7-(5-methyl-1H-indazol-4-yl)quinazoline] are 2670 nM, 40 nM, 2380 nM and 17 nM.
For `Oc1cc(-c2c(F)cc3c(N4C[C@@H]5CC[C@H]4CN5)nc(OCC45CCCN4C[C@H](F)C5)nc3c2F)c2c(F)c(F)ccc2c1` (atropisomer, axis not shown; (M)) [Example 233, (M)-4-(4-((1S,4S)-2,5-Diazabicyclo[2.2.2]octan-2-yl)-6,8-difluoro-2-(((2R,7aS)-2-fluorotetrahydro-1H-pyrrolizin-7a(5H)-yl)methoxy)quinazolin-7-yl)-5,6-difluoronaphthalen-2-ol] the same measures were 27 nM, 1 nM, 5 nM and 1 nM.
For `Cc1cccc2cccc(-c3c(F)cc4c(N5[C@@H]6CC[C@H]5CNC6)nc(OC[C@@]56CCCN5C[C@H](F)C6)nc4c3F)c12` [Example 23, 4-((1R,5S)-3,8-diazabicyclo[3.2. 1]octan-8-yl)-6,8-difluoro-2-(((2R,7aS)-2-fluorotetrahydro-1H-pyrrolizin-7a(5H)-yl)methoxy)-7-(8-methylnaphthalen-1-yl)quinazoline] the same measures were 2600 nM, 44 nM, 10300 nM and 19 nM.
`CCc1c(F)ccc2cccc(-c3c(F)cc4c(N5C[C@H]6CC[C@@H](C5)N6)nc(OC[C@@]56CCCN5C[C@H](F)C6)nc4c3F)c12` [Example 69, 4-((1R,5S)-3,8-diazabicyclo[3.2. 1]octan-3-yl)-7-(8-ethyl-7-fluoronaphthalen-1-yl)-6,8-difluoro-2-(((2R,7aS)-2-fluorotetrahydro-1H-pyrrolizin-7a(5H)-yl)methoxy) quinazoline]: the IC50 stood at 514 nM in assay [1], 4 nM in assay [2] and 1000 nM in assay [3]. In assay [4], the “Avg 2 h Coupled Exchange IC50” value came to 2 nM.
